Measurements: paper PMC7483518, “Destabilizing single chain major histocompatibility complex class I protein for repurposed enterokinase proteolysis” (Scientific Reports, 2020)
Read-outs that look alike come from different tables or passages of the source.

Key:
[1] = target: photolabile unchained HLA-A*11:01 pMHC-I protein (Homo sapiens, UniProt P04439, A114D/D185E/E176A/F33Y/L180Q/S129P/T187R); experiment: ELISA with photolabile unchained pMHC-I protein and UV irradiation; type: binding
[2] = tested on: HLA-A*11:01 single chain protein; type: biochemical, Human; design: EZ50kDa / EZ50kD (pH 6.2) / EZ50kD (pH 8) / EZ50kD (normalised: EBV1101 = 1, EBV0201 = 0) / EZ50kDa rank: unit not given beside the values;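 on EZ50kD (pH 6.2): scaled with positive control peptide as 1 and negative control peptide as 0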
[3] = EASY MHC-I A*11:01, run 2019-08-06, 5min, mean of 2 replicates
[4] = EASY MHC-I A*11:01, run 2019-08-08, 5min, mean of 2 replicates
[5] = EASY MHC-I A*11:01, run 2019-08-07, 5min, mean of 2 replicates
[6] = Table 2, 62.5 nM photolabile pMHC-I mixture, 5 μM peptide in PBS, UV 365 nm 2 × 5 min on ice, 2 h room temperature on anti-β2m plate, Abs450nm − Abs570nm, instability cutoff < 0.6
[7] = Table 2, pH 6.2, 37 °C, enterokinase, Eq. (4), instability cutoff < 0.3
[8] = EASY MHC-I A*11:01, 2019-07-25, mean of the 2 replicates
[9] = EASY MHC-I A*11:01, 2019-07-26, mean of the 2 replicates
[10] = EASY MHC-I A*11:01, 2019-08-01, mean of the 2 replicates
[11] = EASY MHC-I A*11:01, gel 2019-07-17 lr1028-1036 5min, replicate 1 (lanes 1-14)
[12] = EASY MHC-I A*11:01, gel 2019-07-17 lr1028-1036 5min, replicate 2 (lanes 15-28)
[13] = EASY MHC-I A*11:01, gel 2019-07-24 lr1046_ex1004 5min, replicate 1 (lanes 1-14)
[14] = EASY MHC-I A*11:01, gel 2019-07-24 lr1046_ex1004 5min, replicate 2 (lanes 15-28)

Sequence	EASY_mean [1]	EZ_mean [2]	EASY_mean ([1]; […], mean, STDEV)	further results
LMPFGSLLD [CS1012, probably meant CS1032]	-0.02081	-0.06046	–	EZ MHC-I stability with HLA-A*11:01 single chain protein ([2]; Fig. 2f,g, EGFR peptide library): strongly stabilizing
LMPFGSLLDY [CS1022]	0.006828	-0.05808	–	–
LMPFGSLLDYV [CS1033]	-0.01373	-0.06309	–	–
LTSTVQLIM [TM1009]	–	–	-0.03424	EZ_mean [2, 3]: -0.1009
LTSTVQLIMQ [TM1019]	–	–	-0.02206	EZ_mean [2, 4]: -0.0385; Norm_mean [2, 4]: -0.02611
LTSTVQLIMQL [TM1030]	–	-0.07795	-0.03337	–
LTSTVQLIMQLM [TM1041]	–	-0.1142	-0.04948	–
MPFGSLLD [CS1004]	-0.003998	-0.07336	–	–
MPFGSLLDY [CS1013]	-0.03532	-0.0684	–	–
MPFGSLLDYV [CS1023]	0.02198	-0.04531	–	–
MPLGSLLDYVR [CS1034]	-0.006346	-0.06141	–	–
MQLMPFGC [TM1008]	–	–	–	EASY_mean ([1]; ELISA signal, mean, […]): -0.0333; EZ_mean [2, 3]: -0.09972
MQLMPFGCL [TM1017]	–	–	-0.03322	EZ_mean [2, 5]: -0.1037
MQLMPFGCLLD [TM1038]	–	-0.125	–	EASY_mean ([1]; ELISA signal, mean, […]): -0.0584
NTLEQTVKK [reference compound]	–	–	–	ELISA450nm [1, 6]: 1.631; EZ50kD (pH 6.2) [2, 7]: 0.5647
PFGSLLDY [CS1005]	-0.004417	-0.07269	–	–
PFGSLLDYVR [CS1024]	0.06666	-0.007587	–	–
PVAIKTSPKA [EX1010]	–	–	-0.007707	EZ_mean [2, 8]: -0.04257
PVAIKTSPKAN [EX1017]	–	–	–	EASY_mean ([1]; ELISA signal, mean, […]): -0.01335; EZ_mean [2, 9]: -0.1176
PVAIKTSPKANK [EX1025]	-0.00741	–	–	EZ_mean [2, 10]: -0.1057
QLIMQLMP [TM1005]	–	–	–	EASY_mean ([1]; ELISA signal, mean, […]): -0.03905; EZ_mean [2, 3]: -0.1114
QLIMQLMPF [TM1014]	–	–	-0.03038	EZ_mean [2, 5]: -0.09931
QLIMQLMPFG [TM1024]	–	–	–	EASY_mean ([1]; ELISA signal, mean, […]): -0.01897; EZ_mean [2, 4]: -0.01105; Norm_mean [2, 4]: 0.009219

Sequence	EASY_mean [1]	EZ_mean [2]	EASY_mean ([1]; […], mean, STDEV)	further results
QLIMQLMPFGC [TM1035]	–	-0.1197	–	EASY_mean ([1]; ELISA signal, mean, […]): -0.06893
QLIMQLMPFGCL [TM1047]	-0.05287	-0.1111	–	–
QLITQLMPFGS [CS1028]	-0.02964	-0.07904	–	–
QLITQLMPFGSL [CS1040]	-0.0163	-0.03735	–	–
QLMPFGSLLD [CS1021]	0.0006677	-0.06288	–	–
RAKLLGAE [LR1008]	–	-0.05335	-0.01564	–
RAKLLGAEE [LR1017]	–	-0.04971	-0.0266	–
RAKLLGAEEKE [LR1038]	-0.00823	-0.07295	–	–
RAKLLGAEEKEY [LR1050]	0.01434	0.007797	–	–
RSFKDLLKK [reference compound]	–	–	–	ELISA450nm [1]: 1.682; EZ50kD (pH 6.2) ([2]; pH 6.2): 0.6092
SLLDYVRE [CS1008]	-0.02238	-0.06325	–	–
SLLDYVREHKD [CS1038]	-0.01097	-0.03388	–	–
SSCSSCPLSK [reference compound]	–	–	–	ELISA450nm [1, 6]: 1.272; EZ50kD (pH 6.2) [2, 7]: 0.6649; EZ50kD (pH 6.2) ([2]; pH 6.2): 0.9576; EZ50kD (pH 8) ([2]; pH 8): 0.8409
STIPETTVVR [putative peptide, HBV, no IEDB entry]	–	–	–	ELISA450nm [1, 6]: 1.391; EZ50kD (pH 6.2) [2, 7]: 0.3226
STVQLIMQ [TM1002]	–	–	-0.02917	EZ_mean [2, 3]: -0.09047
STVQLIMQLM [TM1021]	–	–	-0.01593	EZ_mean [2, 4]: -0.03318; Norm_mean [2, 4]: -0.01917
STVQLIMQLMP [TM1032]	–	-0.1174	–	EASY_mean ([1]; ELISA signal, mean, […]): -0.06602
STVQLIMQLMPF [TM1043]	–	-0.1271	-0.05995	–
TDFGRAKL [LR1004]	–	-0.05517	-0.01664	–
TDFGRAKLL [LR1013]	–	-0.005317	-0.002506	–
TDFGRAKLLG [LR1023]	–	-0.0651	-0.02398	–
TDFGRAKLLGA [LR1034]	-0.04602	–	–	EZ_mean ([2]; EASY MHC-I A*11:01, gel 2019-07-17 lr1028-1036 5min, mean of 2 replicates): -0.04886; EZ50kD (normalised: EBV1101 = 1, EBV0201 = 0) [2, 11]: -0.06534; Norm (50 kDa band adj. volume normalised: Undig_37C = 1, Dig_37C = 0) [2, 11]: -0.06378; EZ50kD (normalised: EBV1101 = 1, EBV0201 = 0) [2, 12]: -0.03237; Norm (50 kDa band adj. volume normalised: Undig_37C = 1, Dig_37C = 0) [2, 12]: -0.02825
TDFGRAKLLGAE [LR1046]	-0.01889	–	–	EZ_mean ([2]; EASY MHC-I A*11:01, gel 2019-07-24 lr1046_ex1004 5min, mean of 2 replicates): -0.05291; EZ50kD (normalised: EBV1101 = 1, EBV0201 = 0) [2, 13]: -0.04519; Norm (50 kDa band adj. volume normalised: Undig_37C = 1, Dig_37C = 0) [2, 13]: -0.03888; EZ50kD (normalised: EBV1101 = 1, EBV0201 = 0) [2, 14]: -0.06064; Norm (50 kDa band adj. volume normalised: Undig_37C = 1, Dig_37C = 0) [2, 14]: 0.001098

Sequence	EASY_mean [1]	EZ_mean [2]	EASY_mean ([1]; […], mean, STDEV)	further results
TQLMPFGS [CS1001]	0.00928	-0.06222	–	–
TQLMPFGSL [CS1010]	-0.009401	-0.05322	–	–
TQLMPFGSLLD [CS1031]	-0.03382	-0.07663	–	–
TQLMPFGSLLDY [CS1043]	0.01363	-0.01577	–	–
TSPKANKE [EX1004]	-0.008845	-0.03458	–	–
TSPKANKEI [EX1009]	–	–	-0.005092	EZ_mean [2, 8]: -0.03775
TSPKANKEIL [EX1015]	–	–	-0.004833	EZ_mean [2, 9]: -0.1061
TSPKANKEILD [EX1022]	–	–	–	EASY_mean ([1]; ELISA signal, mean, […]): -0.01584; EZ_mean [2, 9]: -0.1213
TSPKANKEILDE [EX1030]	-0.0262	–	–	EZ_mean [2, 10]: -0.138
TSTVQLIM [TM1001]	–	–	-0.02312	EZ_mean [2, 3]: -0.08359
TSTVQLIMQ [TM1010]	–	–	-0.01875	EZ_mean [2, 5]: -0.07795
TSTVQLIMQL [TM1020]	–	–	-0.02933	EZ_mean [2, 4]: -0.0424; Norm_mean [2, 4]: -0.03086
TSTVQLIMQLM [TM1031]	–	-0.09739	-0.04936	–
TSTVQLIMQLMP [TM1042]	–	-0.1051	–	EASY_mean ([1]; ELISA signal, mean, […]): -0.04181
TVMDIISRR [reference compound]	–	–	–	ELISA450nm [1, 6]: 1.944; EZ50kD (pH 6.2) [2, 7]: 1.086
TVQLIMQL [TM1003]	–	–	-0.03257	EZ_mean [2, 3]: -0.09825
TVQLIMQLM [TM1012]	–	–	-0.03295	EZ_mean [2, 5]: -0.1032
TVQLIMQLMP [TM1022]	–	–	–	EASY_mean ([1]; ELISA signal, mean, […]): -0.01505; EZ_mean [2, 4]: -0.0531; Norm_mean [2, 4]: -0.04425
TVQLIMQLMPF [TM1033]	–	-0.1125	-0.06339	–
TVQLIMQLMPFG [TM1044]	–	-0.09806	–	EASY_mean ([1]; ELISA signal, mean, […]): -0.03569
VAIKTSPKA [EX1005]	–	–	0.004482	EZ_mean [2, 8]: -0.02025
VAIKTSPKAN [EX1011]	–	–	–	EASY_mean ([1]; ELISA signal, mean, […]): -0.005285; EZ_mean [2, 8]: -0.03763
VAIKTSPKANKE [EX1026]	-0.02113	–	–	EZ_mean [2, 10]: -0.1295
